Data: patent publication US20230085307A1, “PYRIDAZINONE COMPOUND AND HERBICIDE” (NISSAN CHEMICAL CORPORATION, priority 2019, published 2023)

Assays:
[1] = system: redroot pigweed; experiment: Test Example 5: herbicidal effect by foliage application, plastic box (Table 20, symbol N); assay type: in vivo, redroot pigweed (Amaranthus retroflexus); settings: foliage application, 320 g/ha, three weeks after application
Method in brief: (§1)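 Post-emergence foliar test in sterilized diluvial soil. Compound applied as water-diluted emulsion at a predetermined rate to 14-day-old plants; evaluation at three weeks.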

[2] = system: wild oat; experiment: Test Example 5: herbicidal effect by foliage application, plastic box (Table 20, symbol I); assay type: in vivo, wild oat (Avena fatua); settings: foliage application, 320 g/ha, three weeks after application
Method in brief: as §1

[3] = system: windgrass; experiment: Test Example 5: herbicidal effect by foliage application, plastic box (Table 20, symbol L); assay type: in vivo, windgrass (Apera spica-venti); settings: foliage application, 320 g/ha, three weeks after application
Method in brief: as §1

[4] = system: velvetleaf; experiment: Test Example 5: herbicidal effect by foliage application, plastic box (Table 20, symbol M); assay type: in vivo, velvetleaf (Abutilon theophrasti); settings: foliage application, 320 g/ha, three weeks after application
Method in brief: as §1

[5] = system: redroot pigweed; experiment: Test Example 4: herbicidal effect by soil treatment (Table 19, symbol N); assay type: in vivo, redroot pigweed (Amaranthus retroflexus); settings: amount of applied herbicide 320 g/ha
Method in brief: (§2)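 Emulsion of test compound, water-diluted to predetermined amount, sprayed on soil after sowing (seed depth ~1.5 cm, sterilized diluvial soil). Greenhouse, 25–30° C. Effect graded at three weeks post-spray.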

[6] = system: wild oat; experiment: Test Example 4: herbicidal effect by soil treatment (Table 19, symbol I); assay type: in vivo, wild oat (Avena fatua); settings: amount of applied herbicide 320 g/ha
Method in brief: as §2

[7] = system: Italian ryegrass; experiment: Test Example 4: herbicidal effect by soil treatment (Table 19, symbol K); assay type: in vivo, Italian ryegrass (Lolium multiflorum); settings: amount of applied herbicide 320 g/ha
Method in brief: as §2

[8] = system: lambsquarters; experiment: Test Example 5: herbicidal effect by foliage application, plastic box (Table 20, symbol O); assay type: in vivo, lambsquarters (Chenopodium album); settings: foliage application, 320 g/ha, three weeks after application
Method in brief: as §1

[9] = system: windgrass; experiment: Test Example 4: herbicidal effect by soil treatment (Table 19, symbol L); assay type: in vivo, windgrass (Apera spica-venti); settings: amount of applied herbicide 320 g/ha
Method in brief: as §2

[10] = system: chickweed; experiment: Test Example 5: herbicidal effect by foliage application, plastic box (Table 20, symbol P); assay type: in vivo, common chickweed (Stellaria media); settings: foliage application, 320 g/ha, three weeks after application
Method in brief: as §1

[11] = system: green foxtail; experiment: Test Example 5: herbicidal effect by foliage application, plastic box (Table 20, symbol G); assay type: in vivo, green foxtail (Setaria viridis); settings: foliage application, 320 g/ha, three weeks after application
Method in brief: as §1

[12] = system: barnyard grass; experiment: Test Example 5: herbicidal effect by foliage application, plastic box (Table 20, symbol H); assay type: in vivo, barnyard grass (Echinochloa crus-galli); settings: foliage application, 320 g/ha, three weeks after application
Method in brief: as §1

[13] = system: barnyard grass; experiment: Test Example 4: herbicidal effect by soil treatment (Table 19, symbol H); assay type: in vivo, barnyard grass (Echinochloa crus-galli); settings: amount of applied herbicide 320 g/ha
Method in brief: as §2

[14] = system: velvetleaf; experiment: Test Example 4: herbicidal effect by soil treatment (Table 19, symbol M); assay type: in vivo, velvetleaf (Abutilon theophrasti); settings: amount of applied herbicide 320 g/ha
Method in brief: as §2

[15] = system: blackgrass; experiment: Test Example 5: herbicidal effect by foliage application, plastic box (Table 20, symbol J); assay type: in vivo, blackgrass (Alopecurus myosuroides); settings: foliage application, 320 g/ha, three weeks after application
Method in brief: as §1

[16] = system: barnyard grass; experiment: Test Example 3: herbicidal effect by foliage application, Wagner pot (Table 18, symbol H); assay type: in vivo, barnyard grass (Echinochloa crus-galli); settings: 320 g/ha
Method in brief: (§3)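 Plants were sown in alluvial soil held under 0.1–0.5 cm standing water and grown 14 days in a greenhouse at 25–30 °C. An emulsifiable formulation, water-diluted to the set dose, was then sprayed onto the foliage, and effects were scored three weeks later using previously defined criteria.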

[17] = system: lambsquarters; experiment: Test Example 4: herbicidal effect by soil treatment (Table 19, symbol O); assay type: in vivo, lambsquarters (Chenopodium album); settings: amount of applied herbicide 320 g/ha
Method in brief: as §2

[18] = system: persian speedwell; experiment: Test Example 5: herbicidal effect by foliage application, plastic box (Table 20, symbol R); assay type: in vivo, Persian speedwell (Veronica persica); settings: foliage application, 320 g/ha, three weeks after application
Method in brief: as §1

[19] = system: chickweed; experiment: Test Example 4: herbicidal effect by soil treatment (Table 19, symbol P); assay type: in vivo, common chickweed (Stellaria media); settings: amount of applied herbicide 320 g/ha
Method in brief: as §2

[20] = system: persian speedwell; experiment: Test Example 4: herbicidal effect by soil treatment (Table 19, symbol R); assay type: in vivo, Persian speedwell (Veronica persica); settings: amount of applied herbicide 320 g/ha
Method in brief: as §2

[21] = system: rice flat sedge; experiment: Test Example 3: herbicidal effect by foliage application, Wagner pot (Table 18, symbol E); assay type: in vivo, rice flat sedge (Cyperus iria); settings: 320 g/ha
Method in brief: as §3

[22] = system: southern crabgrass; experiment: Test Example 4: herbicidal effect by soil treatment (Table 19, symbol F); assay type: in vivo, southern crabgrass (Digitaria ciliaris); settings: amount of applied herbicide 320 g/ha
Method in brief: as §2

[23] = system: green foxtail; experiment: Test Example 4: herbicidal effect by soil treatment (Table 19, symbol G); assay type: in vivo, green foxtail (Setaria viridis); settings: amount of applied herbicide 320 g/ha
Method in brief: as §2

[24] = system: Chinese sprangletop; experiment: Test Example 3: herbicidal effect by foliage application, Wagner pot (Table 18, symbol D); assay type: in vivo, chinese sprangletop (Leptochloa chinensis); settings: 320 g/ha
Method in brief: as §3

[25] = system: Italian ryegrass; experiment: Test Example 5: herbicidal effect by foliage application, plastic box (Table 20, symbol K); assay type: in vivo, Italian ryegrass (Lolium multiflorum); settings: foliage application, 320 g/ha, three weeks after application
Method in brief: as §1

[26] = system: southern crabgrass; experiment: Test Example 5: herbicidal effect by foliage application, plastic box (Table 20, symbol F); assay type: in vivo, southern crabgrass (Digitaria ciliaris); settings: foliage application, 320 g/ha, three weeks after application
Method in brief: as §1

[27] = system: blackgrass; experiment: Test Example 4: herbicidal effect by soil treatment (Table 19, symbol J); assay type: in vivo, blackgrass (Alopecurus myosuroides); settings: amount of applied herbicide 320 g/ha
Method in brief: as §2

Structure (SMILES)	N: redroot pigweed, herbicidal effect grade [1]	I: wild oat, herbicidal effect grade [2]	L: windgrass, herbicidal effect grade [3]	M: velvetleaf, herbicidal effect grade [4]	N: redroot pigweed, herbicidal effect grade [5]	I: wild oat, herbicidal effect grade [6]	K: Italian ryegrass, herbicidal effect grade [7]	O: lambsquarters, herbicidal effect grade [8]	L: windgrass, herbicidal effect grade [9]	P: chickweed, herbicidal effect grade [10]	G: green foxtail, herbicidal effect grade [11]	H: barnyard grass, herbicidal effect grade [12]	H: barnyard grass, herbicidal effect grade [13]	J: blackgrass, herbicidal effect grade [15]	herbicidal effect on barnyard grass (H) [16]	R: persian speedwell, herbicidal effect grade [18]	herbicidal effect on rice flat sedge (E) [21]	herbicidal effect on Chinese sprangletop (D) [24]	K: Italian ryegrass, herbicidal effect grade [25]	F: southern crabgrass, herbicidal effect grade [26]	also measured
CCCC(=O)Oc1c(C)nn(C)c(=O)c1-c1c(-c2ccccc2OC)sc2cc(Cl)ccc12 [3-036]	5 (Herbicidal rate of 90% or more (almost completely withered))	1 (Herbicidal rate of 5% or more and less than 20%)	0 (Herbicidal rate of 5% or less (almost no effect))	4 (Herbicidal rate of 70% or more and less than 90%)	5 (Herbicidal rate of 90% or more (almost completely withered))	0 (Herbicidal rate of 5% or less (almost no effect))	0 (Herbicidal rate of 5% or less (almost no effect))	3 (Herbicidal rate of 40% or more and less than 70%)	3 (Herbicidal rate of 40% or more and less than 70%)	5 (Herbicidal rate of 90% or more (almost completely withered))	3 (Herbicidal rate of 40% or more and less than 70%)	5 (Herbicidal rate of 90% or more (almost completely withered))	3 (Herbicidal rate of 40% or more and less than 70%)	0 (Herbicidal rate of 5% or less (almost no effect))	5 (Herbicidal rate of 90% or more (almost completely withered))	5 (Herbicidal rate of 90% or more (almost completely withered))	4 (Herbicidal rate of 70% or more and less than 90%)	0 (Herbicidal rate of 5% or less (almost no effect))	0 (Herbicidal rate of 5% or less (almost no effect))	1 (Herbicidal rate of 5% or more and less than 20%)	M: velvetleaf, herbicidal effect grade [14]: 2 (Herbicidal rate of 20% or more and less than 40%); O: lambsquarters, herbicidal effect grade [17]: 3 (Herbicidal rate of 40% or more and less than 70%); P: chickweed, herbicidal effect grade [19]: 3 (Herbicidal rate of 40% or more and less than 70%); R: persian speedwell, herbicidal effect grade [20]: 3 (Herbicidal rate of 40% or more and less than 70%); F: southern crabgrass, herbicidal effect grade [22]: 1 (Herbicidal rate of 5% or more and less than 20%); G: green foxtail, herbicidal effect grade [23]: 2 (Herbicidal rate of 20% or more and less than 40%); J: blackgrass, herbicidal effect grade [27]: 0 (Herbicidal rate of 5% or less (almost no effect))
COc1ccc(-c2sc3cc(Cl)ccc3c2-c2c(O)c(C)nn(C)c2=O)cc1 [3-037]	5 (Herbicidal rate of 90% or more (almost completely withered))	0 (Herbicidal rate of 5% or less (almost no effect))	0 (Herbicidal rate of 5% or less (almost no effect))	5 (Herbicidal rate of 90% or more (almost completely withered))	0 (Herbicidal rate of 5% or less (almost no effect))	0 (Herbicidal rate of 5% or less (almost no effect))	0 (Herbicidal rate of 5% or less (almost no effect))	4 (Herbicidal rate of 70% or more and less than 90%)	0 (Herbicidal rate of 5% or less (almost no effect))	5 (Herbicidal rate of 90% or more (almost completely withered))	0 (Herbicidal rate of 5% or less (almost no effect))	0 (Herbicidal rate of 5% or less (almost no effect))	0 (Herbicidal rate of 5% or less (almost no effect))	0 (Herbicidal rate of 5% or less (almost no effect))	4 (Herbicidal rate of 70% or more and less than 90%)	5 (Herbicidal rate of 90% or more (almost completely withered))	4 (Herbicidal rate of 70% or more and less than 90%)	3 (Herbicidal rate of 40% or more and less than 70%)	0 (Herbicidal rate of 5% or less (almost no effect))	0 (Herbicidal rate of 5% or less (almost no effect))	M: velvetleaf, herbicidal effect grade [14]: 0 (Herbicidal rate of 5% or less (almost no effect)); O: lambsquarters, herbicidal effect grade [17]: 3 (Herbicidal rate of 40% or more and less than 70%); P: chickweed, herbicidal effect grade [19]: 3 (Herbicidal rate of 40% or more and less than 70%); R: persian speedwell, herbicidal effect grade [20]: 3 (Herbicidal rate of 40% or more and less than 70%); F: southern crabgrass, herbicidal effect grade [22]: 0 (Herbicidal rate of 5% or less (almost no effect)); G: green foxtail, herbicidal effect grade [23]: 0 (Herbicidal rate of 5% or less (almost no effect)); J: blackgrass, herbicidal effect grade [27]: 0 (Herbicidal rate of 5% or less (almost no effect))
Cc1nn(C)c(=O)c(-c2c(-c3ccc(C(F)(F)F)cc3)sc3cc(F)ccc23)c1O [3-139]	3 (Herbicidal rate of 40% or more and less than 70%)	3 (Herbicidal rate of 40% or more and less than 70%)	5 (Herbicidal rate of 90% or more (almost completely withered))	5 (Herbicidal rate of 90% or more (almost completely withered))	–	–	–	5 (Herbicidal rate of 90% or more (almost completely withered))	–	5 (Herbicidal rate of 90% or more (almost completely withered))	4 (Herbicidal rate of 70% or more and less than 90%)	5 (Herbicidal rate of 90% or more (almost completely withered))	–	0 (Herbicidal rate of 5% or less (almost no effect))	4 (Herbicidal rate of 70% or more and less than 90%)	5 (Herbicidal rate of 90% or more (almost completely withered))	4 (Herbicidal rate of 70% or more and less than 90%)	4 (Herbicidal rate of 70% or more and less than 90%)	5 (Herbicidal rate of 90% or more (almost completely withered))	2 (Herbicidal rate of 20% or more and less than 40%)	Herbicidal effect by soil treatment, N: redroot pigweed [5]: 4 (Herbicidal rate of 70% or more and less than 90%); Herbicidal effect by soil treatment, I: wild oat [6]: 0 (Herbicidal rate of 5% or less (almost no effect)); Herbicidal effect by soil treatment, K: Italian ryegrass [7]: 0 (Herbicidal rate of 5% or less (almost no effect)); Herbicidal effect by soil treatment, L: windgrass [9]: 0 (Herbicidal rate of 5% or less (almost no effect)); Herbicidal effect by soil treatment, H: barnyard grass [13]: 0 (Herbicidal rate of 5% or less (almost no effect)); Herbicidal effect by soil treatment, M: velvetleaf [14]: 2 (Herbicidal rate of 20% or more and less than 40%); Herbicidal effect by soil treatment, O: lambsquarters [17]: 3 (Herbicidal rate of 40% or more and less than 70%); Herbicidal effect by soil treatment, P: chickweed [19]: 0 (Herbicidal rate of 5% or less (almost no effect)); Herbicidal effect by soil treatment, R: persian speedwell [20]: 1 (Herbicidal rate of 5% or more and less than 20%); Herbicidal effect by soil treatment, F: southern crabgrass [22]: 0 (Herbicidal rate of 5% or less (almost no effect)); Herbicidal effect by soil treatment, G: green foxtail [23]: 0 (Herbicidal rate of 5% or less (almost no effect)); Herbicidal effect by soil treatment, J: blackgrass [27]: 0 (Herbicidal rate of 5% or less (almost no effect))
